Experiment [1] concerns primary human keratinocytes. Description: Western blotting of CKI-treated primary human keratinocytes. The class given is cell-based. The settings on record: 72 hours. The procedure:
FIGS. 4A to 4G show the effect of CKI treatment on human primary keratinocytes and melanocytes. […] In FIG. 4B, the primary human keratinocytes were treated with indicated concentrations of CKI when the cell confluence was 90%. […] Statistical results from a total of 3 independent experiments were determined with unpaired t-test analysis and shown as mean±SD. “NS” indicates no significant difference and asterisks *** indicates a significant difference with P<0.001. In FIGS. 4D and 4E, the primary melanocytes were cultured in conditional medium that have cultured keratinocytes for 3 days and treated with or without CKI.
FIGS. 7A to 7C show the effects of additional casein kinase 1 inhibitors including A51, CKI7, D4476 and IC261 on the Kit pathway and melanogenesis-related protein expression levels of human keratinocytes.
(§1) Western blot For experiments involving tissues, the tissues were homogenized and lysed in 1x tissue protein extraction reagent (Thermo Fisher) containing protease inhibitor (Millipore) and kept on ice; for experiments involving cells, cell pellet was collected and lysed in 1x radioimmunoprecipitation assay (RIPA) lysis buffer containing protease inhibitor (Millipore) and kept on ice. The total protein concentration was determined using Protein Assay Dye Reagent Concentrate (Bio-Rad) following manufacturer's instruction with a microplate reader. Sample was diluted in SDS-PAGE Sample Buffer (Bio-Rad) and heated at 95° C. for 5 minutes. The protein sample was then resolved on SDS-PAGE gels (TGX FastCast acrylamide solutions, Bio-Rad) and transferred onto poly(vinylidene fluoride) (PVDF) membranes (Millipore). 5% BSA was used, and then the membranes were incubated with primary antibodies overnight at 4° C. The membranes were then washed by Tris-buffered saline with Tween 20 (TBST) and incubated with secondary antibodies for 1 hour at room temperature. The signal was detected using iBright FL1000 Imaging System from Thermo Fisher Scientific.
Cell culture Human keratinocyte and melanocyte were cultured from human foreskin. The keratinocyte was cultured with keratinocyte serum-free medium (SFM), or K-SFM, which is a complete serum-free medium and supplemented with human recombinant epidermal growth factor (rEGF) and bovine pituitary extract (BPE) (Gibco, 17005042) at the time of use. Melanocyte was cultured with Medium 254 containing human melanocyte growth supplement (HMGS) (Gibco, M254500). The culture was maintained at 37° C. and in 5% CO2. Keratinocyte Kit ligand secretion was detected by Human SCF ELISA Kit (Abcam, ab176109). All of the procedures followed manufacturer's instruction.
In skin, keratinocyte interacts with melanocyte through a system of paracrine growth factors and cell-cell adhesion junction for a stable skin homeostatic balance. In this embodiment, primary cultures of keratinocyte and melanocyte were prepared from human foreskin. The primary human keratinocytes were treated with indicated concentration of CKI for 3 days, and the conditional medium was collected and used to treat melanocytes for 3 days.
Additional casein kinase 1 inhibitors were used to examine their effects on KitL production with human keratinocyte cultures. […] A51 was a CKI gifted by Dr. Yinon Ben-Neriah, and […] (Sigma-Aldrich D1944) and IC261 (Sigma-Aldrich 400090) were commercially available and were dissolved in DMSO. CKI7 was another CKI commercially available (Sigma-Aldrich C0742) and was dissolved in ddH20. […] Expression of KitL was increased in CKI, CKI7, D4476 and IC261 after treatment for 72 hours, compared to DMSO or mock. Mock was a control in the experiment where the keratinocytes were neither treated with DMSO or any CKI. In FIG. 7B, it was further shown that D4476 treatment at concentrations of from 500 nM to 5,000 nM on human keratinocytes increases the expression of p53 and KitL […] in treated keratinocytes after 72 hours. […]
Background: Immunoblotting shows a protein as a band on a membrane.

Experiment [2] has as its system KitL/c-Kit pathway and melanocyte-related targets. The experiment is described as follows: Western blotting of ear skin, MC1R mutant mice. The class given is in vivo, mouse. The settings on record: topical, total 0.24 mg over 2 weeks, ear skin at 3rd week. The method, then:
FIGS. 2A to 2L show the effects of CK1α ablation in keratinocytes of MC1R mutant mice and the UV protection effect of topical CKI treatment on MC1R mutant mice. […] The skin samples were treated as illustrated in the scheme and harvested after 24 hours of 750 mJ/cm^2 UVB irradiation on day 21 and stained with anti-CPD antibody for examining the DNA damage.
FIGS. 5A and 5B show the effect of D4476 and IC261 treatments on MC1R mutant mice.
as §1

For another experiment, the system named is human foreskin explants. Description: Human skin explant: colour, Fontana-Masson staining, Melan-A and Trp-1 IHC. The class given is cell-based. The conditions noted are these: D4476, human skin explant. The procedure: (§2) The specimen was cultured in the 12-well plate (N=5). After 24 hours of explant culture, the specimen was treated with 0.01 mg CKI, and another treatment of 0.01 mg CKI was given two days thereafter, as shown in the timeline. On the 5th day, the specimens were exposed under 1 J/cm^2 UVB light. Samples were harvested 6 hours later. […] Moreover, frozen embedding in OCT was also made for IHC analysis for Melan-A and Trp-1 labelling.
(§3) FIGS. 6A to 6E show the UV protection effect of topical treatment of another CKI, D4476, on human skin explants. […] FIGS. 6C and 6D show the Western blotting analysis results and the quantitated amount, respectively, of the expression levels of proteins in the c-Kit pathway and melanogenesis-related protein.
For topical use on human skin explant, a CKI solution containing 1 mg in 6 μL DMSO was diluted with 594 μL phosphate buffered saline (PBS) for further use. The final working concentration is 0.01 mg/6 μL.
Human skin explant The human foreskins were used for in vitro explant culture experiments. […]
Primary antibody was applied in 4° C. overnight, and then incubated with secondary antibody at room temperature for 30 minutes. The signal was detected by AEC+Substrate-Chromogen (K346111, Dako) or Dako REAL EnVDetectSys Perox/DAB+, Rb/M (K500711, Dako), counterstained with hematoxylin and mounted with either aqueous- or organic-based medium. […]

Experiment [3] concerns p53 and pigmentation-related proteins. Description: Western blotting of human skin explant epidermis. Format: cell-based. The settings on record: 0.1 mg of D4476, human skin explant, vs control.
Excerpt: (§4) The numbers of Melan-A+cells and Trip-1+cells and also the relative melanin intensity in the control or CKI treatment groups are quantified in the histograms. […] The asterisks *** indicated a significant difference with P<0.001.
In addition, the epidermis and dermis were separated by thermolysin. The total proteins of epidermis were extracted by T-PER Tissue Protein Extraction Reagent (78510, Thermo Fisher) for Western blotting analysis.
as §1

The subject of the next experiment is CPD. Description: UVB-induced CPD in human skin explants. The class given is cell-based. The conditions noted are these: 0.08 mg of D4476; 6 hours after 1,000 mJ/cm^2 UVB. The procedure: as §2, §4, §3
In the immunohistochemical analysis shown in FIG. 3C, both Melan-A and Trp-1, the markers for melanocyte, were found increased in the staining. […] In addition, human skin explants after topical CKI treatment were exposed to 1 J/cm^2 UVB irradiation, and collected for CPD analysis 6 hours later. […]

[4] abbreviates: compared to DMSO or mock (FIG. 7A).
Where [5] appears, read: 500 nM to 5,000 nM, dose-independently.

For the compound `NCCNS(=O)(=O)c1ccc(Cl)c2ccncc12` [CKI7], the “expression of KitL” value in experiment [1] (setting [4]) is recorded as “increased”.
In the case of `COc1cc(OC)c(C=C2C(O)=Nc3ccccc32)c(OC)c1` [IC261], in experiment [2], the “expression of Kit-L” value is “increased”, the “expression of c-Kit” value is “increased” and the expression of tyrosinase entry is “increased”. Moreover, in experiment [1] (setting [5]), the “expression of KitL” value is “increases” and the “expression of p53” value was “increases”. In experiment [1] (setting [4]), the “expression of KitL” value is reported as “increased”.
For `NC(=O)c1ccc(-c2nc(-c3ccc4c(c3)OCCO4)c(-c3ccccn3)[nH]2)cc1` [D4476], in experiment [2], the “expression of Kit-L” value is reported as “increased”, the “expression of c-Kit” value is on record as “increased” and the expression of tyrosinase result is reported as “increased”. Also, the “melanin intensity in epidermis (Fontana-Masson staining)” value in the experiment with human foreskin explants is “increased”. For the same compound, in experiment [3], the “KitL (Western blotting)” value is given as “increased”, the “c-Kit (Western blotting)” value is “increased”, the “p53 (Western blotting)” value was “stabilization” and the “tyrosinase (Western blotting)” value was “increased”. Moreover, the “β-catenin (Western blotting)” value in experiment [3] was “stabilization”. Moreover, the CPD staining entry with CPD is given as “reduced”. In experiment [1] (setting [5]), the “expression of KitL” value is recorded as “increases” and the “expression of p53” value is recorded as “increases”. The “expression of KitL” value in experiment [1] (setting [4]) is “increased”.

The record behind these values is patent publication US20230053307A1, “METHOD FOR PREVENTING OR TREATING SKIN DISORDERS AND CONDITIONS” (BUDDHIST TZU CHI MEDICAL FOUNDATION, priority 2021, published 2023).
